The values below come from article PMC9027581, “Characterization of Constituents with Potential Anti-Inflammatory Activity in Chinese Lonicera Species by UHPLC-HRMS Based Metabolite Profiling” (Metabolites, 2022).

The test system of one data set is NO production. Briefly: NO release from LPS/IFN-γ-stimulated RAW 264.7 macrophages (Griess). The data set is classed as cell-based, mouse. The settings on record: for NO % Inhibition (30 µM) / inhibition at 30 µM: means ± SD of 3 experiments in duplicates; for effect on NO production: pure compound, screening 30 µM. The method, then: (§1) To evaluate the pharmacological activity of the extracts, all extracts were assayed in three different cellular in vitro models that are relevant in the context of inflammation. […] In these cells, the potential impact of the extracts on cell viability was assessed (Figure 2C).
(§2) Assays were performed as previously described. Extracts were dissolved in dimethyl sulfoxide (DMSO) and further diluted in cell culture medium to obtain a final concentration of 50 µg/mL; DMSO at the respective final concentration (<0.1%) was used as vehicle control in each assay. OPLS-DA candidate compounds were also dissolved in DMSO to obtain a final screening concentration of 30 µM.
After removing 50 µL of the supernatants to react with Griess reagent (Sigma Aldrich), cells were incubated with XTT reagent (XTT proliferation kit II, Sigma Aldrich). NO production (Griess reaction) and metabolic activity of the cells (XTT formazan product) were photometrically measured. Tests were performed in three independent experiments, each in duplicate.
(§3) To determine the IC50 values, pure compounds showing significant inhibitory activity at the screening concentration were tested at 5–10 concentrations, each with 4 replicates.
For orientation: Griess reagent forms a coloured azo dye with nitrite.

Another data set concerns IL-8 expression. Briefly: IL-8 expression in LPS-stimulated HUVECtert cells. It counts as cell-based. The settings on record: for IL-8 % Inhibition (30 µM) / inhibition at 30 µM / IC50: HUVECtert cells stimulated with LPS; for IL-8 % Inhibition (30 µM) / inhibition at 30 µM: means ± SD of 5 replicates, b: one sample pooled from the 5 replicates; for effect on IL-8 expression: pure compound, screening 30 µM. As to the method:
as §1, §2
[…] Impact of test samples on cell viability was determined after 6 h of stimulation by XTT. […] After incubation for 2 h, absorbance was measured at 450 nm. Samples decreasing cell viability by more than 30% were considered to negatively influence cell viability.
as §3

For another data set, the system named is NF-κB. In words: NF-κB-driven luciferase reporter gene transactivation in TNF-α-stimulated HEK293/NF-κB-luc cells. To be noted: for NFκB % Inhibition (30 µM) / inhibition at 30 µM / IC50: HEK/NFκB-luc cells stimulated with TNF-α; for NFκB % Inhibition (30 µM) / inhibition at 30 µM: means ± SD of 4 replicates; for effect on NF-κB activation: pure compound, screening 30 µM; for inhibition at 30 µM / IC50: Homo sapiens, HEK293. It counts as cell-based. As to the method: as §1, §2
Transactivation activity of a NF-κB-driven luciferase reporter gene was determined in TNF-α (2 ng/mL)-stimulated HEK293/NF-κB-luc cells (Panomics, RC0014), using 5 µM parthenolide (Sigma-Aldrich, St. Louis, MO, USA) as positive control. Differences in cell viability were detected by comparing the fluorescence of vehicle-treated cells and cells treated with sample solutions upon staining with CellTracker Green CMFDA (C2925; Invitrogen), a fluorescent probe that is retained inside living cells. Screening samples were tested in three independent experiments, each performed in quadruplicate.
as §3

The next data set concerns HUVECtert cells. In words: Cell viability of HUVECtert cells (XTT). It counts as cell-based. Details: key: ^+ compound significantly impaired cell viability at concentration of 30 µM. To be noted: 30 µM, decrease of viability by more than 30%. As to the method:
Effects on IL-8 expression were tested in hTERT-immortalized HUVECtert cells stimulated with lipopolysaccharide (LPS, 100 ng/mL, Sigma-Aldrich), with BAY 11-7082 (5 µM) as positive control. Activity screening was performed in sextuplicate. Impact of test samples on cell viability was determined after 6 h of stimulation by XTT. Incubation medium was removed, and 40 µL serum-free medium, containing XTT (Thermo Fisher Scientific, final concentration 200 µg/mL) and phenazine methyl sulfate (TCI Europe N.V., final concentration: 25 µM) were added to each well. After incubation for 2 h, absorbance was measured at 450 nm. Samples decreasing cell viability by more than 30% were considered to negatively influence cell viability.
In general terms: Tetrazolium dyes change colour on reduction, which living cells bring about.

Where [1] appears, read: LPS/IFNγ-stimulated RAW macrophages.
[2] abbreviates: Mus musculus, Macrophage, LPS/IFNγ-stimulated RAW macrophages.

A word on the inhibition: it is the relative decrease from the control value, in per cent. For orientation: IC50 means the concentration at which inhibition is half-maximal.

For `C=C[C@H]1[C@H](O[C@@H]2O[C@H](CO)[C@@H](O)[C@H](O)[C@H]2O)OC=C(C(=O)OC)[C@H]1CC(=O)O` [Compound 4, Secoxyloganin, reference compound], in the data set with NO production (setting [1]), the “NO % Inhibition (30 µM)” value was 5.85 ± 4.58%. Also, in the data set with IL-8 expression (30 µM), the “IL-8 % Inhibition (30 µM)” value is −0.96 ± 6.01%. Moreover, the “NFκB % Inhibition (30 µM)” value in the data set on NF-κB (30 µM) is on record as −17.25 ± 9.25%.
With `O=c1cc(-c2ccc(O)c(O)c2)oc2cc(O[C@@H]3O[C@H](CO)[C@@H](O)[C@H](O)[C@H]3O)cc(O)c12` [Compound 7, luteolin-7-O-glucoside, reference compound], in the data set with NO production (setting [1]), the “NO % Inhibition (30 µM)” value was 4.68 ± 9.82%. Besides, the “effect on NO production” value in the data set on NO production is listed as “no activity”. In the data set on IL-8 expression (30 µM), the “IL-8 % Inhibition (30 µM)” value was 7.42 ± 2.04%. Moreover, the “effect on IL-8 expression” value with IL-8 expression was “no activity”. Also, the “NFκB % Inhibition (30 µM)” value in the data set with NF-κB (30 µM) turned out to be 0.68 ± 4.29%. For the same compound, the “effect on NF-κB activation” value with NF-κB was “no activity”.
With `O=c1cc(-c2ccc(O)c(O)c2)oc2cc(O)cc(O)c12` [Compound 18, luteolin, reference compound], the inhibition at 30 µM with NO production (setting [2]) is 56.4 ± 12.7%; with IL-8 expression (30 µM), 74.8 ± 2.15%; in the data set with NF-κB (30 µM), 95.83 ± 0.01%. Moreover, the IC50 in the data set with NO production (setting [2]) came to 31.8 µM; in the data set with NF-κB, 6.84 µM.
On to `O=c1cc(-c2ccc(O)cc2)oc2cc(O)cc(O)c12` [Compound 21, apigenin], for which the inhibition at 30 µM with NO production (setting [2]) is 24.3 ± 10.8%; in the data set with IL-8 expression (30 µM), 64.8 ± 3.03%. The same compound gave an IC50 with IL-8 expression of 18.9 µM.
Regarding `COc1cc(-c2cc(=O)c3c(OC)cc(O)cc3o2)cc(OC)c1OC` [Compound 22, 7-hydroxy-5-methoxy-2-(3,4,5-trimethoxyphenyl)-chromen-4-one], the inhibition at 30 µM was 8.22 ± 11.9% in the data set with NO production (setting [2]), 13.2 ± 2.49% in the data set on IL-8 expression (30 µM) and 51.1 ± 2.86% with NF-κB (30 µM). Further, the “effect on NF-κB activation” value with NF-κB (listed as 7-hydroxy-5,3′,4′,5′-tetramethoxyflavone) was “weak inhibition”.
As for `O=c1cc(-c2ccc(O)cc2)oc2c(-c3c(O)cc(O)c4c(=O)cc(-c5ccc(O)cc5)oc34)c(O)cc(O)c12` [Compound 26, 5,7,5′,7,-Tetrahydroxy-2,2′-bis-(4-hydroxy-phenyl)-[8,8′]bichromenyl-4,4′-dione], the inhibition at 30 µM in the data set on NO production (setting [2]) is 9.61 ± 11.4%; with IL-8 expression (30 µM) it was -2.05 ± 3.02%; in the data set on NF-κB (30 µM), 3.42 ± 3.15%.
`COc1cc(-c2cc(=O)c3c(O)cc(O)c(-c4c(O)cc(O)c5c(=O)cc(-c6ccc(O)cc6)oc45)c3o2)ccc1O` [Compound 27, 5,7,5′,7,-Tetrahydroxy-2-(4-hydroxy3-methoxy-phenyl)-2′-(4-hydroxy-phenyl)-[8,8′]bichromenyl-4,4′-dione]: the figures for the inhibition at 30 µM in the data set on NO production (setting [2]), in the data set on IL-8 expression (30 µM) and with NF-κB (30 µM) were 1.45 ± 7.78%, 3.5 ± 4.58% and 78.1 ± 8.86%, respectively. In the data set on NF-κB, this compound gave an IC50 of 19.6 µM. The “effect on NF-κB activation” value in the data set on NF-κB is given as “moderately inhibited”.
As to `COc1cc(-c2cc(=O)c3c(O)cc(O)c(-c4c(O)cc(O)c5c(=O)cc(-c6ccc(O)c(OC)c6)oc45)c3o2)ccc1O` [Compound 29, 5,7,5′,7,-Tetrahydroxy-2,2′-bis-(4-hydroxy-3-methoxy-phenyl)-[8,8′]bichromenyl-4,4′-dione], the inhibition at 30 µM is -0.85 ± 3.84% in the data set on NO production (setting [2]), 2.97 ± 9.92% in the data set with IL-8 expression (30 µM) and 31.2 ± 15.5% in the data set on NF-κB (30 µM). For the same compound, the “NF-κB Activity” value with NF-κB (class from Table 5 data, 30 µM) is “(a)”.
For the compound `O=c1cc(-c2ccc(O)c(-c3c(O)cc(O)c4c(=O)cc(-c5ccc(O)cc5)oc34)c2)oc2cc(O)cc(O)c12` [Compound 32, amentoflavone, reference compound], the values for the inhibition at 30 µM with NO production (setting [2]), in the data set on IL-8 expression (30 µM) and in the data set with NF-κB (30 µM) were 7.06 ± 10.6%, 9.35 ± 2.78% and 90.8 ± 3.43%, respectively. The midpoint of inhibition in the data set on NF-κB, the IC50, lay at 6.45 µM. The “effect on NF-κB activation” value with NF-κB is listed as “potently inhibited”.
Turning to `COc1ccc(-c2cc(=O)c3c(O)cc(O)c(-c4cc(-c5cc(=O)c6c(O)cc(O)cc6o5)ccc4O)c3o2)cc1` [Compound 33, podocarpusflavone A, reference compound], the values for the inhibition at 30 µM in the data set with NO production (setting [2]), in the data set on IL-8 expression (30 µM) and with NF-κB (30 µM) were 3.42 ± 3.94%, 40.2 ± 29.8% and 99.2 ± 1.25%, respectively. The IC50 in the data set with IL-8 expression is 47.9 µM; in the data set on NF-κB it was 3.44 µM. Further, the “effect on IL-8 expression” value with IL-8 expression was “moderately inhibited”. In addition, in the data set on NF-κB, the “effect on NF-κB activation” value is reported as “potently inhibited”.
Turning to `C=Cc1c(C)c2cc3nc(c4c5[nH]c(cc6nc(cc1[nH]2)C(C)=C6CC)c(C)c5C(=O)[C@@H]4C(=O)OC)[C@@H](CCC(=O)O)[C@@H]3C` [Compound 52, pheophorbide A, reference compound], the values for the inhibition at 30 µM in the data set on NO production (setting [2]), in the data set on IL-8 expression (30 µM) and in the data set on NF-κB (30 µM) were 5.48 ± 7.55%, 95.8% and 74.7 ± 13.6%, respectively. Further, the “effect on NO production” value in the data set on NO production was “did not inhibit”. For the same compound, in the data set on IL-8 expression (class from Table 5 data, 30 µM), the “IL-8 Activity” value was “a/ct”. For the same compound, in the data set on IL-8 expression, the “effect on IL-8 expression” value is on record as “inhibited IL-8 production”. The “impaired cell viability (flag, IL-8 assay)” value with HUVECtert cells is “+”. The compound also yielded an IC50 in the data set on NF-κB of 3.04 µM. The “effect on NF-κB activation” value in the data set with NF-κB was “pronounced inhibition”.
